# From US12655116B2, “Substituted isophthalic acid diamides” (Bayer Aktiengesellschaft, priority 2020, dated 2026)
# How the values were obtained:
# VIOTR = assay: Post-emergence herbicidal action against VIOTR; format: in vivo, Viola tricolor; conditions: Viola tricolor, 504 h
# Summary of the method: (§1)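 Foliar application at one-leaf stage of formulated test compounds, aqueous spray at 600–800 l/ha with 0.2% wetting agent. Greenhouse, optimal conditions, ~3 weeks; damage scored visually in % relative to untreated plants.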
# ABUTH [1] = assay: Post-emergence herbicidal action against ABUTH; format: in vivo, Abutilon theophrasti; conditions: Abutilon theophrasti, 504 h, visual assessment about 3 weeks after treatment vs untreated controls
# Summary of the method: as §1
# ABUTH [2] = assay: Pre-emergence herbicidal action against ABUTH; format: in vivo, Abutilon theophrasti; conditions: Abutilon theophrasti, 504 h
# Summary of the method: (§2)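 Greenhouse pots of sandy loam held seeds covered with soil, onto which the compound was applied before emergence. An aqueous suspension or emulsion of WP or EC was used at 600 to 800 l/ha with 0.2% wetting agent. Percent damage was judged visually at 3 weeks.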
# VERPE [3] = assay: Pre-emergence herbicidal action against VERPE; format: in vivo, Veronica persica; conditions: Veronica persica, 504 h, dosage 320 g/ha
# Summary of the method: as §2
# ALOMY [4] = assay: Post-emergence herbicidal action against ALOMY; format: in vivo, Alopecurus myosuroides; conditions: Alopecurus myosuroides, 504 h, visual assessment about 3 weeks after treatment vs untreated controls
# Summary of the method: as §1
# VERPE [5] = assay: Post-emergence herbicidal action against VERPE; format: in vivo, Veronica persica; conditions: Veronica persica, 504 h, 80 g/ha
# Summary of the method: as §1
# HORMU [6] = assay: Post-emergence herbicidal action against HORMU; format: in vivo, Hordeum murinum; conditions: Hordeum murinum, 504 h
# Summary of the method: as §1
# MATIN [7] = assay: Post-emergence herbicidal action against MATIN; format: in vivo, Matricaria inodora; conditions: Tripleurospermum inodorum, 504 h
# Summary of the method: as §1
# MATIN [8] = assay: Pre-emergence herbicidal action against MATIN; format: in vivo, Matricaria inodora; conditions: Tripleurospermum inodorum, 504 h
# Summary of the method: as §2
# HORMU [9] = assay: Pre-emergence herbicidal action against HORMU; format: in vivo, Hordeum murinum; conditions: Hordeum murinum, 504 h, pre-emergence
# Summary of the method: as §2
# SETVI [10] = assay: Pre-emergence herbicidal action against SETVI; format: in vivo, Setaria viridis; conditions: Setaria viridis, 504 h
# Summary of the method: as §2
# POLCO [11] = assay: Post-emergence herbicidal action against POLCO; format: in vivo, Polygonum convolvulus; conditions: Fallopia convolvulus, 504 h, dosage 80 g/ha
# Summary of the method: as §1
# AVEFA [12] = assay: Pre-emergence herbicidal action against AVEFA; format: in vivo, Avena fatua; conditions: Avena fatua, 504 h, pre-emergence
# Summary of the method: as §2
# ECHCG = assay: Post-emergence herbicidal action against ECHCG; format: in vivo, Echinochloa crus-galli; conditions: Echinochloa crus-galli, 504 h, dosage 80 g/ha
# Summary of the method: as §1
# ALOMY [13] = assay: Pre-emergence herbicidal action against ALOMY; format: in vivo, Alopecurus myosuroides; conditions: Alopecurus myosuroides, 504 h, pre-emergence
# Summary of the method: as §2
# PHBPU = assay: Post-emergence herbicidal action against PHBPU; format: in vivo, Pharbitis purpurea; conditions: Ipomoea purpurea, 504 h
# Summary of the method: as §1
# SETVI [14] = assay: Post-emergence herbicidal action against SETVI; format: in vivo, Setaria viridis; conditions: Setaria viridis, 504 h
# Summary of the method: as §1
# LOLRI = assay: Pre-emergence herbicidal action against LOLRI; format: in vivo, Lolium rigidum; conditions: Lolium rigidum, 504 h, 320 g/ha
# Summary of the method: as §2
# STEME [15] = assay: Pre-emergence herbicidal action against STEME; format: in vivo, Stellaria media; conditions: Stellaria media, 504 h
# Summary of the method: as §2
# AVEFA [16] = assay: Post-emergence herbicidal action against AVEFA; format: in vivo, Avena fatua; conditions: Avena fatua, 504 h, visual assessment about 3 weeks after treatment, 100% = plants have died, 0% = like control plants
# Summary of the method: as §1
# STEME [17] = assay: Post-emergence herbicidal action against STEME; format: in vivo, Stellaria media; conditions: Stellaria media, 504 h
# Summary of the method: as §1
# POLCO [18] = assay: Pre-emergence herbicidal action against POLCO; format: in vivo, Polygonum convolvulus; conditions: Fallopia convolvulus, 504 h
# Summary of the method: as §2
# AMARE = assay: Pre-emergence herbicidal action against AMARE; format: in vivo, Amaranthus retroflexus; conditions: Amaranthus retroflexus, 504 h, 100% = plants have died, 0% = like control plants
# Summary of the method: as §2
# [19] = 80 g/ha, scored visually after 3 weeks vs untreated controls (100% = plants have died, 0% = like control plants)
# [20] = 320 g/ha, scored visually after 3 weeks, 100% = plants have died, 0% = like control plants
smiles,measurement,setting,value
CCCn1nnnc1NC(=O)c1ccc(C(F)(F)F)c(C(=O)NC)c1Cl [Example 3-129],pest or weed control at 5 g/ha,VIOTR; 5 g/ha,80%
same,pest or weed control at 20 g/ha,VIOTR; 20 g/ha,90%
same,pest or weed control at 80 g/ha,VIOTR; 80 g/ha,100%
same,pest or weed control at 5 g/ha,ABUTH [1]; dosage 5 g/ha,100%
same,pest or weed control at 20 g/ha,ABUTH [1]; dosage 20 g/ha,100%
same,pest or weed control at 80 g/ha,ABUTH [1]; dosage 80 g/ha,100%
same,pest or weed control at 80 g/ha,ABUTH [2]; [19],100%
same,pest or weed control at 320 g/ha,"ABUTH [2]; Dosage: 320 g/ha, scored visually after 3 weeks, 100% = plants have died, 0% = like control plants",100%
same,pest or weed control at 20 g/ha,"ABUTH [2]; dosage 20 g/ha, scored visually after 3 weeks vs untreated controls, 100% = plants have died, 0% = like control plants, read-out: Pre-emergence action against ABUTH (herbicidal activity in percent)",100%
same,pest or weed control at 320 g/ha,VERPE [3],100%
same,pest or weed control at 20 g/ha,ALOMY [4]; dosage 20 g/ha,80%
same,pest or weed control at 80 g/ha,ALOMY [4]; dosage 80 g/ha,100%
same,pest or weed control at 80 g/ha,VERPE [5],80%
same,pest or weed control at 20 g/ha,HORMU [6]; dosage 20 g/ha,90%
same,pest or weed control at 80 g/ha,HORMU [6]; dosage 80 g/ha,100%
same,pest or weed control at 5 g/ha,MATIN [7]; dosage 5 g/ha,100%
same,pest or weed control at 20 g/ha,MATIN [7]; dosage 20 g/ha,100%
same,pest or weed control at 80 g/ha,MATIN [7]; dosage 80 g/ha,100%
same,pest or weed control at 20 g/ha,MATIN [8]; dosage 20 g/ha,90%
same,pest or weed control at 80 g/ha,MATIN [8]; dosage 80 g/ha,100%
same,pest or weed control at 320 g/ha,MATIN [8]; dosage 320 g/ha,100%
same,pest or weed control at 80 g/ha,HORMU [9]; 80 g/ha,90%
same,pest or weed control at 320 g/ha,HORMU [9]; 320 g/ha,100%
same,pest or weed control at 80 g/ha,SETVI [10]; dosage 80 g/ha,90%
same,pest or weed control at 320 g/ha,SETVI [10]; dosage 320 g/ha,100%
same,pest or weed control at 80 g/ha,POLCO [11],90%
same,pest or weed control at 80 g/ha,AVEFA [12]; 80 g/ha,100%
same,pest or weed control at 320 g/ha,AVEFA [12]; [20],100%
same,pest or weed control at 80 g/ha,ECHCG,100%
same,pest or weed control at 80 g/ha,ALOMY [13]; [19],80%
same,pest or weed control at 320 g/ha,ALOMY [13]; [20],100%
same,pest or weed control at 20 g/ha,PHBPU; dosage 20 g/ha,90%
same,pest or weed control at 80 g/ha,PHBPU; dosage 80 g/ha,100%
same,pest or weed control at 20 g/ha,SETVI [14]; dosage 20 g/ha,100%
same,pest or weed control at 80 g/ha,SETVI [14]; dosage 80 g/ha,100%
same,pest or weed control at 320 g/ha,LOLRI,100%
same,pest or weed control at 20 g/ha,STEME [15]; dosage 20 g/ha,90%
same,pest or weed control at 80 g/ha,STEME [15]; dosage 80 g/ha,100%
same,pest or weed control at 320 g/ha,STEME [15]; dosage 320 g/ha,100%
same,pest or weed control at 20 g/ha,AVEFA [16]; 20 g/ha,100%
same,pest or weed control at 80 g/ha,AVEFA [16]; 80 g/ha,100%
same,pest or weed control at 20 g/ha,STEME [17]; 20 g/ha,100%
same,pest or weed control at 80 g/ha,STEME [17]; 80 g/ha,100%
same,pest or weed control at 5 g/ha,STEME [17]; dosage 5 g/ha,100%
same,pest or weed control at 80 g/ha,POLCO [18]; dosage 80 g/ha,80%
same,pest or weed control at 320 g/ha,POLCO [18]; dosage 320 g/ha,100%
same,pest or weed control at 20 g/ha,"AMARE; 20 g/ha, scored visually after 3 weeks vs untreated controls",100%
same,pest or weed control at 80 g/ha,"AMARE; 80 g/ha, scored visually after 3 weeks vs untreated controls",100%
same,pest or weed control at 320 g/ha,"AMARE; 320 g/ha, scored visually after 3 weeks",100%
